# Data from US12195427B2, “MASP-2 inhibitors and methods of use” (priority 2018, dated 2025).
# Where a name gives a salt, the structure may show the parent alone.
# Columns and labels:
# MASP-2 (CCP1-CCP2-SP) = MASP-2 (CCP1-CCP2-SP) (Homo sapiens (Human), UniProt O00187); test: Enzymatic Assay for MASP-2 (fluorogenic substrate); assay type: biochemical
# human α-thrombin = human α-thrombin (Homo sapiens (Human), UniProt P00734); test: Enzymatic Assay for Thrombin (Boc-VPR-AMC); assay type: biochemical
# Lectin Pathway = Lectin Pathway Activation Assay in Human Serum (mannan-coated ELISA, C3c detection); assay type: biochemical; conditions: 1% human serum
# Procedure: Microtiter ELISA plate was coated with mannan from Saccharomyces cerevisiae (Sigma-Aldrich, M7504) for overnight at 4° C. in coating buffer [15 mM Na2CO3, 35 mM NaHCO3].
# MASP-2 CCP2-SP = MASP-2 CCP2-SP (Homo sapiens (Human), UniProt O00187); test: MASP-2 co-crystallization, X-ray crystallography and structure analysis (H-bonds, van der Waals contacts); set-up: van der Waals contact distance, MASP-2 HIS 483 atom CD2 / van der Waals contact distance, MASP-2 HIS 483 atom NE2 / van der Waals contact distance, SER 654 C to compound atom / van der Waals contact distance, SER 654 O to compound atom / van der Waals contact distance, TRP 655 C to compound atom / van der Waals contact distance, MASP-2 GLY 528 atom CA / van der Waals contact distance TRP 655 atom CZ3 / van der Waals contact distance TRP 655 atom N / van der Waals contact distance TRP 655 atom CE3 / van der Waals contact distance GLY 656 atom C / van der Waals contact distance GLY 656 atom CA / van der Waals contact distance GLY 656 atom O / van der Waals contact distance, MASP-2 TYR 607 atom CD1 / van der Waals contact distance, MASP-2 PRO 606 atom O / d(C3,CA1) / d(CA1,N1)2 / d(H4,O1) / d(H4,O2) / d(O1,O2) / d(CA1,O2) / d(CA6,O1) / d(CA6,O2) / d(CA1,C5) / d(O2,H3) / d(N2,C2) / d(CA5,N2) / d(N2,C4) / d(N2,C6) / d(N2,CA3) / d(N2,O3) / d(O4,H2): unit not given beside the values;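 on Ligand-pharmacophore element distance, pharmacophore element C2: distance from averaged pharmacophore element to bound ligand; missing value means element absent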;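 on Ligand-pharmacophore element distance, pharmacophore element C3: distance from averaged pharmacophore element to bound ligand; missing value means element absent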;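 on Ligand-pharmacophore element distance, pharmacophore element C4: distance from averaged pharmacophore element to bound ligand; missing value means element absent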;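 on Ligand-pharmacophore element distance, pharmacophore element C5: distance from averaged pharmacophore element to bound ligand; missing value means element absent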
# Chain of MASP-2 CCP2-SP (O00187 445-686): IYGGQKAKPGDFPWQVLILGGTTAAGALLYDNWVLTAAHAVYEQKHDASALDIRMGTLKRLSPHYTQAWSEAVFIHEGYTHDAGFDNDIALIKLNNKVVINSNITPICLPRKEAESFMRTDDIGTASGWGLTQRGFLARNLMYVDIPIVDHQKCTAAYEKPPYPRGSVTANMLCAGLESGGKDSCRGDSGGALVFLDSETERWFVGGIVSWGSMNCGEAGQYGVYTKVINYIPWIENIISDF
# Chain of MASP-2 CCP2-SP (O00187 364-432 partner): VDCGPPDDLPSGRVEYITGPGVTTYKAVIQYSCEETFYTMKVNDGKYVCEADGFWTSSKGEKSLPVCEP
# In short: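 Human MASP-2 CCP2-SP, untagged or 6His-tagged, was expressed in E. coli and crystallized. Crystals were soaked with inhibitor in crystallization solution, flash-cooled in liquid nitrogen, and diffracted with synchrotron X-rays (wavelength 1.0). Structures were solved by molecular replacement from 1Q3X and partially refined.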
# [1] = Table A5-1 pharmacophore: distance between elements, S2/S1 region
# [2] = Table A5-2 pharmacophore distance, S3/S4 region
# [3] = Table A7-1, between pharmacophore elements of the bound compound
# [4] = Table A8-6, nearest protein atom in cell to the left
# Chain of MASP-2 (CCP1-CCP2-SP) (O00187 445-686): as the sequence (O00187 445-686) above
compound,measurement,setting,value
"COc1cc(C[C@@H]2CN[C@@H](C(=O)N[C@@H](C)C(=O)NCc3cc(Cl)ccc3-n3cnnn3)C2)cc(OC)c1 [compound 1419, (2R,4S)—N—((S)-1-((5-Chloro-2-(1H-tetrazol-1-yl)benzyl)amino)-1-oxopropan-2-yl)-4-(3,5-dimethoxybenzyl)pyrrolidine-2-carboxamide Trifluoroacetate salt]",Ki,MASP-2 (CCP1-CCP2-SP),< 0.5 µM
same,Ki,human α-thrombin,< 0.5 µM
same,IC50,Lectin Pathway,< 0.05 µM
C[C@H](NC(=O)[C@H](N)CCc1ccccc1)C(=O)NCc1ccc(C(=N)N)cc1 [compound 1024],Ki,MASP-2 (CCP1-CCP2-SP),< 0.5 µM
same,Ki,human α-thrombin,< 0.5 µM
same,H-bond distance to MASP-2 ASP 627 atom OD1,"MASP-2 CCP2-SP; Table A1 (H-Bonds), ASP 627 OD1",2.74
same,H-bond distance to MASP-2 GLY 656 atom N,"MASP-2 CCP2-SP; Table A1 (H-Bonds), GLY 656 N",3.06
same,H-bond distance to MASP-2 SER 628 atom O,"MASP-2 CCP2-SP; Table A1 (H-Bonds), SER 628 O",2.79
same,H-bond distance to MASP-2 SER 654 atom O,"MASP-2 CCP2-SP; Table A1 (H-Bonds), SER 654 O",2.86
same,H-bond distance to MASP-2 SER 657 atom O,"MASP-2 CCP2-SP; Table A1 (H-Bonds), SER 657 O",2.94
same,"van der Waals contact distance, MASP-2 HIS 483 atom CD2",MASP-2 CCP2-SP; Table A2-1,3.39
same,"van der Waals contact distance, MASP-2 TYR 607 atom CD1",MASP-2 CCP2-SP; Table A2-4,3.9
same,"van der Waals contact distance, MASP-2 amino acid atom to compound atom",MASP-2 CCP2-SP; Table A2-7 continued: CYS 629 (CA),3.75
same,van der Waals contact distance GLY 656 atom C,"MASP-2 CCP2-SP; Table A2-13, MASP-2 GLY 656 C",3.53
same,van der Waals contact distance TRP 655 atom CZ3,"MASP-2 CCP2-SP; Table A2-13, MASP-2 TRP 655 CZ3",3.86
same,van der Waals contact distance TRP 655 atom N,"MASP-2 CCP2-SP; Table A2-13, MASP-2 TRP 655 N",3.78
same,van der Waals contact distance TRP 655 atom O,"MASP-2 CCP2-SP; Table A2-13, MASP-2 TRP 655 O",3.59
same,van der Waals contact distance SER 657 atom C,"MASP-2 CCP2-SP; Table A2-14, MASP-2 SER 657 C, columns c12-c13 (inferred)",3.77
same,"Ligand-pharmacophore element distance, pharmacophore element C2","MASP-2 CCP2-SP; Table A4-1, element C2",0
same,"Ligand-pharmacophore element distance, pharmacophore element C3","MASP-2 CCP2-SP; Table A4-1, element C3",0
same,"Ligand-pharmacophore element distance, pharmacophore element C4","MASP-2 CCP2-SP; Table A4-1, element C4",0
same,"Ligand-pharmacophore element distance, pharmacophore element C5","MASP-2 CCP2-SP; Table A4-1, element C5",0
same,"Ligand-pharmacophore element distance, pharmacophore element C6","MASP-2 CCP2-SP; Table A4-1, element C6",0
same,"Ligand-pharmacophore element distance, pharmacophore element C7","MASP-2 CCP2-SP; Table A4-1, element C7",0
same,"Ligand-pharmacophore element distance, pharmacophore element CA1","MASP-2 CCP2-SP; Table A4-1, element CA1",0.4
same,"Ligand-pharmacophore element distance, pharmacophore element CA2","MASP-2 CCP2-SP; Table A4-1, element CA2",0.33
same,"Ligand-pharmacophore element distance, pharmacophore element CA3","MASP-2 CCP2-SP; Table A4-1, element CA3",0
same,"Ligand-pharmacophore element distance, pharmacophore element CA4","MASP-2 CCP2-SP; Table A4-1, element CA4",0
same,"Ligand-pharmacophore element distance, pharmacophore element CA5","MASP-2 CCP2-SP; Table A4-1, element CA5",0
same,"Ligand-pharmacophore element distance, pharmacophore element CA6","MASP-2 CCP2-SP; Table A4-1, element CA6",0
same,"Ligand-pharmacophore element distance, pharmacophore element H1","MASP-2 CCP2-SP; Table A4-2, element H1",0
same,"Ligand-pharmacophore element distance, pharmacophore element H2","MASP-2 CCP2-SP; Table A4-2, element H2",0
same,"Ligand-pharmacophore element distance, pharmacophore element H3","MASP-2 CCP2-SP; Table A4-2, element H3",4.93
same,"Ligand-pharmacophore element distance, pharmacophore element H4","MASP-2 CCP2-SP; Table A4-2, element H4",3.21
same,"Ligand-pharmacophore element distance, pharmacophore element N1","MASP-2 CCP2-SP; Table A4-2, element N1",1.74
same,"Ligand-pharmacophore element distance, pharmacophore element N2","MASP-2 CCP2-SP; Table A4-2, element N2",0.59
same,"Ligand-pharmacophore element distance, pharmacophore element O1","MASP-2 CCP2-SP; Table A4-2, element O1",0.4
same,"Ligand-pharmacophore element distance, pharmacophore element O2","MASP-2 CCP2-SP; Table A4-2, element O2",0.4
same,"Ligand-pharmacophore element distance, pharmacophore element O3","MASP-2 CCP2-SP; Table A4-2, element O3",0
same,"Ligand-pharmacophore element distance, pharmacophore element O4","MASP-2 CCP2-SP; Table A4-2, element O4",0
same,"d(CA1,N1)",MASP-2 CCP2-SP; [1],3.55
same,"d(CA1,O1)",MASP-2 CCP2-SP; [1],4.37
same,"d(CA1,O2)",MASP-2 CCP2-SP; [1],4.23
same,"d(H4,O1)",MASP-2 CCP2-SP; [1],3.99
same,"d(H4,O2)",MASP-2 CCP2-SP; [1],3.27
same,"d(O1,O2)",MASP-2 CCP2-SP; [1],3.23
same,"d(N2,CA2)",MASP-2 CCP2-SP; [2],6.19
same,"d(O2,H3)",MASP-2 CCP2-SP; [2],5.45
same,"d(O2,N2)",MASP-2 CCP2-SP; [2],2.78
same,"a(CA1, O1, O2)",MASP-2 CCP2-SP; Table A6-1 pharmacophore angle,109.78
same,"a(O1, O2, H4)",MASP-2 CCP2-SP; Table A6-1 pharmacophore angle,128.26
same,"A(N1, CA1, O1) a)","MASP-2 CCP2-SP; Table A6-1 pharmacophore angle, all compounds with protonatable center N1 except Methyl-amino-pyridine",163.32
same,"a(O1, O2, H3)",MASP-2 CCP2-SP; Table A6-2 pharmacophore angle,151.79
same,"a(O1, O2, N2)",MASP-2 CCP2-SP; Table A6-2 pharmacophore angle,136.56
same,"a(O2, N2, CA2)",MASP-2 CCP2-SP; Table A6-2 pharmacophore angle,154.55
same,"Pharmacophore torsion angle a(H4, O1, O2, H3)",MASP-2 CCP2-SP; [3],44.69
same,"Pharmacophore torsion angle a(H4, O1, O2, N2)",MASP-2 CCP2-SP; [3],125.09
same,"Pharmacophore torsion angle a(N1, CA1, O2, H4)",MASP-2 CCP2-SP; [3],−97.21
same,"Pharmacophore torsion angle a(O1, H4, O2, CA1)",MASP-2 CCP2-SP; [3],−63.40
same,"Pharmacophore torsion angle a(O1, O2, N2, CA2)","MASP-2 CCP2-SP; Table A7-2, between pharmacophore elements of the bound compound",139.71
same,Pharmacophore protein distance to MET_658 (first MET_658 column),"MASP-2 CCP2-SP; Table A8-6, 6th residue column, nearest protein atom in cell to the left",1.94
same,Pharmacophore protein distance to MET_658 (second MET_658 column),"MASP-2 CCP2-SP; Table A8-6, 9th residue column, nearest protein atom in cell to the left",3.26
same,Pharmacophore protein distance to GLY_528,MASP-2 CCP2-SP; [4],3.60
same,Pharmacophore protein distance to PHE_529,MASP-2 CCP2-SP; [4],3.20
same,Pharmacophore protein distance to PRO_608,MASP-2 CCP2-SP; [4],3.95
same,Pharmacophore protein distance to SER_611,MASP-2 CCP2-SP; [4],2.54
same,Pharmacophore protein distance to TRP_655,"MASP-2 CCP2-SP; Table A8-6, pharmacophore elements C6, CA3, O3, H1, nearest protein atom in cell to the left",3.53
